Results as given in patent publication US10065972B2, “Bicyclic or tricyclic heterocyclic compound” (MITSUBISHI TANABE PHARMA CORPORATION, priority 2014, dated 2018).

Molecular target: human recombinant KAT-II (Homo sapiens (Human), UniProt Q8N5Z0)
Test: KAT-II inhibitory test
Format: biochemical
Details: 3.0 μmol/L kynurenine, 37° C., 1 hr, pH 8.0; kynurenic acid quantified by HPLC
Outline: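 Kynurenic acid formation was measured by HPLC fluorescence (354 nm excitation, 460 nm emission) against an external standard curve. The substrate was 3.0 μmol/L kynurenine with 10 μmol/L pyridoxal phosphate, at pH 8.0 Tris-acetate, 37 °C for 1 hr, using 2.0 ng/μL amylose-purified N-terminal His/MBP-tagged recombinant enzyme. Duplicate measurements were made per concentration.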

Chain of human recombinant KAT-II (Q8N5Z0 30-425): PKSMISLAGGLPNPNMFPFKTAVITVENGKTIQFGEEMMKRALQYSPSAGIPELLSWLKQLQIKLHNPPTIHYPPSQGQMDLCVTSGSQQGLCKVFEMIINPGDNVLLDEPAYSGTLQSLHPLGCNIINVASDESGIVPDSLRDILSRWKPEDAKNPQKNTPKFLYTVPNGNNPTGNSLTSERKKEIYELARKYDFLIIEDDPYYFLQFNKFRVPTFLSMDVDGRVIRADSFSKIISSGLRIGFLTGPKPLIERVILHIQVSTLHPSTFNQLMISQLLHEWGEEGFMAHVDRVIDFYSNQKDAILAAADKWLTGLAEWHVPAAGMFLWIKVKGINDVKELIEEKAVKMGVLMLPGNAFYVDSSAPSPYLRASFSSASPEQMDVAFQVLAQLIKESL

IC50 [µM]	Compound
0.32	O=C(Oc1ccccc1)N1CCC[C@@H]1c1nn2c(=O)c3cc(F)ccc3nc2s1 [Example 155, (R)-2-(7-fluoro-5-oxo-5H-[1,3,4]thiadiazolo[2,3-b]quinazolin-2-yl)pyrrolidine-1-carboxylic acid phenyl ester]
0.23	Cc1cccc(CC(=O)N2CCCN2c2nc3c(=O)[nH]c(C(C)(C)F)nc3s2)c1 [Example 134, 5-(2-fluoropropan-2-yl)-2-{2-[2-(3-methylphenyl)acetyl]pyrazolidin-1-yl}-6H-[1,3]thiazolo[5,4-d]pyrimidin-7-one]
0.0071	C[C@@H](NC(=O)[C@H]1CCCN1c1nc2c(=O)[nH]c(-c3ccc(F)cc3F)nc2s1)c1ccccc1 [Example 499, (R)-1-[5-(2,4-difluorophenyl)-7-oxo-6,7-dihydro[1,3]thiazolo[5,4-d]pyrimidin-2-yl]N-((R)-1-phenylethyl)pyrrolidine-2-carboxamide]
0.84	Cc1nc2sc([C@H]3CCCN3C(=O)NC(C)(C)c3ccccc3)nn2c(=O)c1C [Example 172, (R)-2-(6,7-dimethyl-5-oxo-5H-[1,3,4]thiadiazolo[3,2-a]pyrimidin-2-yl)-N-(1-methyl-1-phenylethyl)pyrrolidine-1-carboxamide]
0.24	O=C(NCc1ccccc1)[C@H]1CCCN1c1nc2c(=O)[nH]cc(C(F)(F)F)c2s1 [Example 617, (R)-N-benzyl-1-(4-oxo-7-trifluoromethyl-4,5-dihydro[1,3]thiazolo[4,5-c]pyridin-2-yl)pyrrolidine-2-carboxamide]
6.2	CC(C)n1c(C(F)(F)F)nc2sc([C@H]3CCCN3C(=O)NCc3ccccc3Cl)nc2c1=O [Example 11, (R)-N-(2-chlorobenzyl)-2-[7-oxo-6-(propan-2-yl)-5-trifluoromethyl-6,7-dihydro[1,3]thiazolo[5,4-d]pyrimidin-2-yl]pyrrolidine-1-carboxamide]
0.61	Cn1c(CN2CCOCC2)nc2sc([C@H]3CCCN3C(=O)OCc3ccccc3)nc2c1=O [Example 8, (R)-2-{6-methyl-5-[(morpholin-4-yl)methyl]-7-oxo-6,7-dihydro[1,3]thiazolo[5,4-d]pyrimidin-2-yl}pyrrolidine-1-carboxylic acid benzyl ester]
0.15	CC(C)(F)c1nc2sc(N3CCCN3C(=O)Cc3ccccc3)nc2c(=O)[nH]1 [Example 133, 5-(2-fluoropropan-2-yl)-2-[2-(phenylacetyl)pyrazolidin-1-yl]-6H-[1,3]thiazolo[5,4-d]pyrimidin-7-one]
0.088	O=C(NCc1ccccc1)[C@H]1CCCN1c1ccc2nc(-c3ccccc3F)[nH]c(=O)c2n1 [Example 713, (R)-N-benzyl-1-[2-(2-fluorophenyl)-4-oxo-3,4-dihydropyrido[3,2-d]pyrimidin-6-yl]pyrrolidine-2-carboxamide]
0.0082	O=C(NCc1ccccc1)[C@H]1CCCN1c1nc2c(=O)n3c(nc2s1)C(F)(F)CCC3 [Example 605, (R)-N-benzyl-1-(5,5-difluoro-10-oxo-5,7,8,10-tetrahydro-6H-pyrido[1,2-a][1,3]thiazolo[5,4-d]pyrimidin-2-yl)pyrrolidine-2-carboxamide]
0.0061	Cc1cccc(OC(=O)N2CCC[C@@H]2c2nc3c(=O)[nH]c(C4(C#N)CC4)nc3s2)c1 [Example 94, (R)-2-[5-(1-cyanocyclopropyl)-7-oxo-6,7-dihydro[1,3]thiazolo[5,4-d]pyrimidin-2-yl]pyrrolidine-1-carboxylic acid 3-methylphenyl ester]
0.25	CCc1nc2sc([C@H]3CCCN3C(=O)NCc3ccccc3)nc2c(=O)n1C [Example 9, (R)-N-benzyl-2-(5-ethyl-6-methyl-7-oxo-6,7-dihydro[1,3]thiazolo[5,4-d]pyrimidin-2-yl)pyrrolidine-1-carboxamide]
0.057	CCc1nc2sc([C@H]3CCCN3C(=O)CN3CCCc4ccccc43)nc2c(=O)n1C [Example 14, (R)-2-{1-[2-(3,4-dihydro-2H-quinolin-1-yl)acetyl]pyrrolidin-2-yl}-5-ethyl-6-methyl-6H-[1,3]thiazolo[5,4-d]pyrimidin-7-one]
0.61	CCn1c(C(F)F)nc2sc(N3CCC[C@@H]3C(=O)NCc3nccs3)nc2c1=O [Example 314, (R)-1-(5-difluoromethyl-6-ethyl-7-oxo-6,7-dihydro-[1,3]thiazolo[5,4-d]pyrimidin-2-yl)-N-[(1,3-thiazol-2-yl)methyl]pyrrolidine-2-carboxamide]
5.2	CC(C)c1cc(=O)n2nc([C@H]3CCCN3C(=O)Nc3ccccc3)sc2n1 [Example 160, (R)-2-[5-oxo-7-(propan-2-yl)-5H-[1,3,4]thiadiazolo[3,2-a]pyrimidin-2-yl]-N-phenylpyrrolidine-1-carboxamide]
0.13	CCc1nc2sc([C@H]3CCCN3C(=O)NC3(c4ccccc4)CC3)nc2c(=O)n1C [Example 12, (R)-2-(5-ethyl-6-methyl-7-oxo-6,7-dihydro[1,3]thiazolo[5,4-d]pyrimidin-2-yl)-N-(1-phenylcyclopropyl)pyrrolidine-1-carboxamide]

IC50 [µM]	Compound
0.017	C[C@H](C(=O)NCc1ccccc1)N(C)c1nc2c(=O)[nH]c(-c3ccccc3F)nc2s1 [Example 532, (R)-N-benzyl-2-{N′-[5-(2-fluorophenyl)-7-oxo-6,7-dihydro[1,3]thiazolo[5,4-d]pyrimidin-2-yl]-N′-methylamino}propionamide]
0.078	CN(C)Cc1nc2sc(N3CCC[C@@H]3C(=O)NCc3ccccc3)nc2c(=O)n1C [Example 323, (R)-N-benzyl-1-{5-[(N′,N′-dimethylamino)methyl]-6-methyl-7-oxo-6,7-dihydro[1,3]thiazolo[5,4-d]pyrimidin-2-yl}pyrrolidine-2-carboxamide]
0.014	O=C(Oc1ccccc1)N1CCC[C@@H]1c1nc2c(=O)[nH]c(-c3ccc(F)cc3F)nc2s1 [Example 67, (R)-2-[5-(2,4-difluorophenyl)-7-oxo-6,7-dihydro[1,3]thiazolo[5,4-d]pyrimidin-2-yl]pyrrolidine-1-carboxylic acid phenyl ester]
0.016	Cc1noc(-c2nc3sc(N4CCC[C@@H]4C(=O)NCc4ccc(F)cc4)nc3c(=O)n2C)n1 [Example 213, (R)-N-(4-fluorobenzyl)-1-[6-methyl-5-(3-methyl-[1,2,4]oxadiazol-5-yl)-7-oxo-6,7-dihydro[1,3]thiazolo[5,4-d]pyrimidin-2-yl]pyrrolidine-2-carboxamide]
0.006	O=C(NCc1ccccc1)[C@H]1CCCN1c1nc2c(=O)[nH]c(-c3ccccc3F)nc2s1 [Example 489, (R)-N-benzyl-1-[5-(2-fluorophenyl)-7-oxo-6,7-dihydro[1,3]thiazolo[5,4-d]pyrimidin-2-yl]pyrrolidine-2-carboxamide]
0.18	COCc1nc2sc(N3CCC[C@@H]3C(=O)NCc3ccccc3)nc2c(=O)n1C1CC1 [Example 258, (R)-N-benzyl-1-[6-cyclopropyl-5-methoxymethyl-7-oxo-6,7-dihydro[1,3]thiazolo[5,4-d]pyrimidin-2-yl]pyrrolidine-2-carboxamide]
0.015	CC(C)c1nc2sc(N(C)[C@H](C)C(=O)NCc3ccccc3)nc2c(=O)[nH]1 [Example 486, (R)-N-benzyl-2-{N′-[5-(propan-2-yl)-7-oxo-6,7-dihydro[1,3]thiazolo[5,4-d]pyrimidin-2-yl]-N′-methylamino}propionamide]
0.14	CCc1cc(=O)n2nc([C@H]3CCCN3C(=O)Oc3ccccc3)sc2n1 [Example 146, (R)-2-(7-ethyl-5-oxo-5H-[1,3,4]thiadiazolo[3,2-a]pyrimidin-2-yl)pyrrolidine-1-carboxylic acid phenyl ester]
0.23	CCc1cc(=O)n2nc(N3CCC[C@@H]3C(=O)NCc3ccccc3)sc2c1 [Example 699, (R)-N-benzyl-1-(7-ethyl-5-oxo-5H-[1,3,4]thiadiazolo[3,2-a]pyridin-2-yl)pyrrolidine-2-carboxamide]
0.16	O=C(Oc1ccccc1)N1CCC[C@@H]1c1nn2c(=O)c3c(nc2s1)CCCC3 [Example 149, (R)-2-(5-oxo-6,7,8,9-tetrahydro-5H-[1,3,4]thiadiazolo[2,3-b]quinazolin-2-yl)pyrrolidine-1-carboxylic acid phenyl ester]
32	CCc1nc2sc(N3CCC[C@@H]3C(=O)NCc3nnc4ccccn34)nn2c(=O)c1F [Example 686, (R)-1-(7-ethyl-6-fluoro-5-oxo-5H-[1,3,4]thiadiazolo[3,2-a]pyrimidin-2-yl)-N-[([1,2,4]triazolo[4,3-a]pyridin-3-yl)methyl]pyrrolidine-2-carboxamide]
0.043	O=C(NCc1ccccc1)[C@H]1CCCN1c1nc2c(=O)[nH]c(N3CCC[C@H]3C(F)(F)F)nc2s1 [Example 553, (R)-N-benzyl-1-{7-oxo-5-[(S)-2-(trifluoromethyl)pyrrolidin-1-yl]-6,7-dihydro[1,3]thiazolo[5,4-d]pyrimidin-2-yl}pyrrolidine-2-carboxamide]
0.01	CCc1nc2sc(N3CCC[C@@H]3C(=O)CNc3ccccc3)nc2c(=O)n1C [Example 579, 5-ethyl-6-methyl-2-[(R)-2-(2-phenylaminoacetyl)pyrrolidin-1-yl][1,3]thiazolo[5,4-d]pyrimidin-7(6H)-one]
0.14	C[C@@H]1CN(C)Cc2nc3sc(N4CCC[C@@H]4C(=O)NCc4ccccc4)nc3c(=O)n21 [Example 601, (R)-N-benzyl-1-[(R)-6,8-dimethyl-10-oxo-5,7,8,10-tetrahydro-6H-pyrazino[1,2-a][1,3]thiazolo[5,4-d]pyrimidin-2-yl]pyrrolidine-2-carboxamide]
0.12	CCc1nc2sc(N3CC[C@@H]3C(=O)NCc3ccccc3)nc2c(=O)n1C [Example 233, (R)-N-benzyl-1-(5-ethyl-6-methyl-7-oxo-6,7-dihydro-[1,3]thiazolo[5,4-d]pyrimidin-2-yl)azetidine-2-carboxamide]
